Experimental data reported in US20250205195A1, “BENZYLOXY-BENZYLAMINYL AMINO ACID DERIVATIVE FOR ADJUSTING TSLP/TSLPR SIGNAL TRANSMISSION” (AMTIXBIO CO., LTD., priority 2021, published 2025).

Assays:
[1] = tested on: HDM-induced atopic dermatitis mice; assay: HDM (Df cream) atopic dermatitis mouse model, skin-specific memory T cell study; type: in vivo, Nc/Nga mice
Source text: Nc/Nga mice (purchased from Central Laboratory Animal, male, 6 weeks old) were used, with 2 mice per group. The experimental animals were allowed to freely access to food and water. Mice were shaved using clippers and depilatory cream before the application of Df cream. Df cream (dermatophagoides farina cream) (Biostir AD, Biostir Incorporation) was applied to the dorsal area of the mice 3 times a week for 4 weeks to induce atopic dermatitis. After confirming lesions induced in all mice, compound 27 of the present invention was applied topically to the skin three times a week for three weeks starting four weeks after the Df cream treatment. In contrast to other examples, this example excluded the simultaneous application of the test drug (compound 27 of the present invention) and the atopic dermatitis-inducing agent during the induction period. The compound of the present invention (8 g/mL and […]) was applied to the skin in a volume of 100 μL. As a positive control, 0.1% dexamethasone was topically applied to the mouse skin for comparison.
Erythema, hemorrhage, wounds, dryness, swelling, and shedding in mice were observed visually and compared using the SCORAD score. […] FIG. 12 graphically represents the changes in the atopic dermatitis mouse model's skin scores due to the treatment with each test substance (Wilcoxon-signed rank test; P<0.05 with statistically significant three mice were examined from each group).
A mouse IgE ELISA Kit (BioLegend, San Diego, CA, USA) and a mouse DF-specific IgE ELISA Kit (BioLegend, San Diego, CA, USA) were used according to the manufacturer's instructions to measure IgE in mouse serum and mouse DF-specific IgE. Changes in the levels of total IgE and DF-specific IgE in the serum were presented in FIGS. 13 (a) and (b), respectively.
Skin tissue changes were examined using Hematoxylin and Eosin (H&E) staining (refer to FIG. 14) (Data are shown as mean±standard deviation (SD). ** P<0.01, * P<0.05). Additionally, changes in eosinophils and mouse epidermal thickness were measured (see FIG. 14).
The results of the analysis of T cell fractions in the skin of atopic dermatitis mouse models treated with compound 27 of the present invention are presented in FIGS. 16 and 17 (data are shown as mean±standard deviation (SD). ** P<0.01, * P<0.05).

interleukin-4 (IL-4) = assay: PMA/ionomycin-induced interleukin-4 in RBL-2H3 cells (ELISA); type: cell-based, rat; conditions: RBL-2H3 cells, 0, 1, 2, 4 and 8 µg/mL, 24 h
Experimental: Rat basophilic leukemia cells RBL-2H3 (obtained from the Korean Cell Line Bank) were seeded at an initial density of 2×10^5 cells/well in a 48-well plate and cultured at 37° C. for 16 to 24 hours. Subsequently, compound 27 of the present invention was added to the RBL-2H3 cell culture medium at final concentrations of 0, 1, 2, 4, and 8 µg/mL and the cells were cultured at 37° C. for 1 hour. Next, to induce interleukin-4, the culture medium was treated with PMA ([…], Sigma-Aldrich, USA) and ionomycin (Sigma-Aldrich, USA) to final concentrations of 50 ng/mL and […], respectively, and the cells were cultured for an additional 24 hours at 37° C. The culture supernatant was then collected, and the amount of induced interleukin-4 from RBL-2H3 cells was determined using an ELISA kit (LABIS KOMA, South Korea) according to the manufacturer's instructions. FIG. 2 (a) represents the results.

interleukin-13 (IL-13) = assay: PMA/ionomycin-induced interleukin-13 in RBL-2H3 cells (ELISA); type: cell-based, rat; conditions: RBL-2H3 cells, 0, 1, 2, 4 and 8 µg/mL, 24 h
Experimental: RBL-2H3 cells were seeded at an initial density of 2×10^5 cells/well in a 24-well plate and cultured at 37° C. for 16 to 24 hours. Subsequently, compound 27 of the present invention was added to the RBL-2H3 cell culture medium at final concentrations of 0, 1, 2, 4, and 8 µg/mL, and the cells were cultured at 37° C. for 1 hour. Next, to induce interleukin-13, the culture medium was treated with PMA ([…], Sigma-Aldrich, USA) and ionomycin (Sigma-Aldrich, USA) to final concentrations of 50 ng/mL and […], respectively, and the cells were cultured for an additional 24 hours at 37° C. The culture supernatant was then collected, and the amount of induced interleukin-13 from RBL-2H3 cells was determined using an ELISA kit (R&D Systems, USA) according to the manufacturer's instructions. FIG. 2 (b) represents the results. […] This indicates the anti-inflammatory effect of compound 27 of the present invention.

[2] = tested on: HDM-induced atopic dermatitis mice; assay: House dust mite (HDM) atopic dermatitis mouse model, dermatitis score; type: in vivo, Nc/Nga mice; conditions: topical or oral, 10 days after administration, vs control group
Source text: Nc/Nga mice (Supplier: Central Animal Laboratory, South Korea, Male, 8 weeks old) were used, with 8 mice per group. The experimental animals were allowed free access to Purina Nestle feed (Switzerland) and water. The mice were shaved using clippers and depilatory cream one day (day 0) before applying Df cream (Dermatophagoides farina cream, Biostir AD, Biostir Incorporation). Df cream was applied to the mouse dorsal area twice a week for 5 weeks to induce atopic dermatitis. After confirming lesions in all mice, compound 27 of the present invention was administered topically or orally for 3 weeks (21 days) from 2 weeks after Df cream application. For topical administration, compound 27 was mixed with 100% ethanol to achieve concentrations of 0.3%, 1%, or 3%, and applied once daily. It was applied to both ears (25 μL each) and the dorsal area (70 μL). 100% ethanol was used as the topical vehicle. For oral administration, compound 27 was administered at doses of 25 mpk (once daily, QD), 50 mpk (QD), or 10 mpk (twice daily, BID). […]
Skin indicators were recorded through visual observation once a week (on days 0, 7, 14, 21, 28, and 36). […] Each item was scored as follows: no symptoms (0 points), mild symptoms (1 point), moderate symptoms (2 points), and severe symptoms (3 points). The total score was calculated by summing up scores for all items.

Question: What does the source list for `CCC(NC)C(=O)NCc1ccc(OCc2ccc(C(F)(F)F)cc2)cc1` (racemic) [Compound 27, (R)/(S)-2-(methylamino)-N-(4-((4-trifluoromethyl)benzyl)oxy)benzyl)butanamide]?
Answer: proportion of skin-specific T cells (CD3+, CD4+, CD69+, CD103+) ([1]; FACS of mouse skin, 16 g/mL, 8 g/mL): concentration-dependent significant decrease; numbers of CD69+ T cells and CD103+ T cells ([1]; FACS of mouse skin, vs 0.1% dexamethasone): statistically significant decrease; eosinophil count in skin tissue ([1]; H&E staining, topical): concentration-dependent decrease; epidermal thickness ([1]; H&E staining, with increasing drug concentration): appeared to thin; atopic dermatitis symptoms (skin scores, FIG. 12) ([1]; […], 8 g/mL topical): improved atopic dermatitis symptoms in a concentration-dependent manner; erythema, hemorrhage, dryness, wounds, swelling and shedding (visual, SCORAD) ([1]; topical, three times a week for three weeks, compound vs 0.1% dexamethasone positive control): significant reduction; amount of induced interleukin-4 (interleukin-4 (IL-4)): decreased proportionally; amount of induced interleukin-13 (interleukin-13 (IL-13)): decreased proportionally; improvement of skin lesions (Modified SCORAD score) [2]: superior effect
